Here are results for 16 molecules from patent US20230302150A1, “ANTIBODY-TLR AGONIST CONJUGATES, METHODS AND USES THEREOF” (Ambrx, Inc., priority 2020, published 2023).

Assay [1] has as its system SKOV3 HER2 high expressing tumor cell line / RAW-Blue cells. Put plainly: RAW-Blue co-culture assay with SKOV3 tumor cells. Format: cell-based, human. As to conditions: conjugated to anti-HER2 antibody; data not shown. On the procedure:
(§1) RAW-Blue™ cells (Invivogen, San Diego, CA) were co-cultured with human tumor cells with different levels of HER2 expression level at 1:1 E:T ratio with total number of 1 million cells per well in the 96 wells plate. Different concentration of small molecule TLR7 agonist and conjugated ISACs, (Immune Stimulating Antibody Conjugates), were added to the co-culture cell medium. After 24 h incubation, the levels of NF-kB-induced SEAP from the RAW-Blue™ cells were determined by Quanti-Blue detection reagents (Invivogen, San Diego, CA) with readings at OD 655 nm. The dose-response curves were generated using Prism Software.

A further assay deals with T1, hTLR7 (Homo sapiens, UniProt Q9NYK1).
T1 construct: expressed in transfected cells; host or cells: HEK-Blue hTLR7 reporter cell line
T1 sequence (Q9NYK1 27-1049): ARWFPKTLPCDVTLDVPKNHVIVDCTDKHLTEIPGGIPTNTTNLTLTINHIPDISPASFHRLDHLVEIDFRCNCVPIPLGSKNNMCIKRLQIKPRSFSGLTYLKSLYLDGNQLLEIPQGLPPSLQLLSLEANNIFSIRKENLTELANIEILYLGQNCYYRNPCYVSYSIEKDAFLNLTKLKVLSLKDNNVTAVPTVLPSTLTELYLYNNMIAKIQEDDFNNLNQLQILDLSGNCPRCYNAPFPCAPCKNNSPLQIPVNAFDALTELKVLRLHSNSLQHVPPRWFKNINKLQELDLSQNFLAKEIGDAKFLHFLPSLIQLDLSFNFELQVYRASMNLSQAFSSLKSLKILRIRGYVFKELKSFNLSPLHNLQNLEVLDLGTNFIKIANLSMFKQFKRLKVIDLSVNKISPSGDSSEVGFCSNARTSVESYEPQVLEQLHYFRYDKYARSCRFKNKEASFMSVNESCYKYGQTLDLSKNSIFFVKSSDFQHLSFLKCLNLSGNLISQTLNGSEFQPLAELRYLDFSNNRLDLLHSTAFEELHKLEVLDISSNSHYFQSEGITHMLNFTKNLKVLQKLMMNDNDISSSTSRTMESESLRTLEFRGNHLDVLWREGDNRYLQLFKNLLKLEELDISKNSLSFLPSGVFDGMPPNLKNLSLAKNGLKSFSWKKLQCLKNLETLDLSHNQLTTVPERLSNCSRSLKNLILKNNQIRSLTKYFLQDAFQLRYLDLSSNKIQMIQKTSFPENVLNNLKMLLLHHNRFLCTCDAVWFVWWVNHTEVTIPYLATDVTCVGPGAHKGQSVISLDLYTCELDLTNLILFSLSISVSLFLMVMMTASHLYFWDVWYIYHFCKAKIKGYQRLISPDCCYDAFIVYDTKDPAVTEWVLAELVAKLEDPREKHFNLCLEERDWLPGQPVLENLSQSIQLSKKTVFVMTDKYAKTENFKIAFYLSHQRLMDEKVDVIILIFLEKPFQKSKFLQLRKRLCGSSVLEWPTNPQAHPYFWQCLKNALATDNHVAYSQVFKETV
Put plainly: HEK-Blue hTLR7 reporter assay (NF-kB-induced SEAP, Quanti-Blue). Format: cell-based. As for the experimental part:
HEK-Blue™ hTLR7 cells were incubated in HEK-Blue™ Detection medium and stimulated with increasing concentrations of TLR7 or TLR8 or TLR7/8 agonists. […] The EC50 was determined from dose-response curve using Prism Software.

For assay [2], the system named is SKBR3 HER2 high expressing tumor cell line / RAW-Blue cells. The assay is described as follows: RAW-Blue co-culture assay with SKBR3 tumor cells (HER2 ISACs). Format: cell-based, human. As for the experimental part:
as §1

Another assay deals with T2, TLR8 (Homo sapiens, UniProt Q9NR97).
T2 sequence (Q9NR97 27-1041): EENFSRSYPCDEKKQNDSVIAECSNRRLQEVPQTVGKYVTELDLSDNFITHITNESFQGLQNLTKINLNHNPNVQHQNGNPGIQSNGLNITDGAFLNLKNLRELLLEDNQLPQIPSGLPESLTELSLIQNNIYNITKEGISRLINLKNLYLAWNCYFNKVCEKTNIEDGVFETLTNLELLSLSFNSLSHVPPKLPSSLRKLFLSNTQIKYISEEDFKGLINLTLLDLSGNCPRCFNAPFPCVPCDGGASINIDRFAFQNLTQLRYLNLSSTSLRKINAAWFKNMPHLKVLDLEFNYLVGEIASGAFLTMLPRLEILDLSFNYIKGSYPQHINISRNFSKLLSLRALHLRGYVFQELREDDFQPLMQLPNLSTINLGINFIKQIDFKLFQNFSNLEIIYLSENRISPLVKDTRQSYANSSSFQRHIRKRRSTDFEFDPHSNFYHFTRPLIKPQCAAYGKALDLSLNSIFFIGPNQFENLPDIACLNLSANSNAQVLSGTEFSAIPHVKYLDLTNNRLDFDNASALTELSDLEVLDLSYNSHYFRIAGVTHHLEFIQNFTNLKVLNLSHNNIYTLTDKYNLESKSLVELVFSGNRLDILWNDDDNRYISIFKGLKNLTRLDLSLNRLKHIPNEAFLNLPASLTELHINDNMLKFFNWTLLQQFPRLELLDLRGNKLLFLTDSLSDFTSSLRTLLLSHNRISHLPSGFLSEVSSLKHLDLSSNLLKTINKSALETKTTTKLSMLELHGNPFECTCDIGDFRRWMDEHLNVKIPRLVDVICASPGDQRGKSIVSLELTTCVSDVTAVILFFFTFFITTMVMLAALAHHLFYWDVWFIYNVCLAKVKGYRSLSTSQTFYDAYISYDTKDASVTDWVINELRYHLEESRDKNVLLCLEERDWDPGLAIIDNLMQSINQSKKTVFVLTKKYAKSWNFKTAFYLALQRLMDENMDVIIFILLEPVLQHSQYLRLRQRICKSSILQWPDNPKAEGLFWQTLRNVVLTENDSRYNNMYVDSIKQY
The assay is described as follows: TLR8 reporter assay. Format: cell-based.

Where [3] appears, read: Table 12, TLR7 agonists attached to a linker, read-out: TLR Agonist Payload + Linkers EC50.
Setting [4] is: Table 15, drug linker, read-out: TLR Agonist + Linker (DL) - EC50.
Setting [5] is: Table 15, pAF containing final metabolite, read-out: TLR Agonist + Linker + nnAA (DL-pAF) - EC50.
The mark [6] stands for this setting: Table 19, TLR7, drug-linkers with PEG shielding, read-out: EC50.
Setting [7] is: Table 11, TLR7 activities, read-out: EC50.
Where [8] appears, read: Core 3 compounds, assay not given, read-out: EC50.

pEC50: −log10 of the molar value. Like-named read-outs stand apart in the source and are kept apart here. A value given as a limit tells only on which side of the number the result lay.

For the molecule `CCCCOc1nc(N)c2[nH]c(=O)n(Cc3ccc(CNC(=O)CCOCCON)cc3)c2n1` [AXC-863], the “tumor dependent ISAC activity” value in assay [1] and in assay [2] was “potent dose dependent activities only in the presence of HER2 high expressing tumor cell lines” throughout. Moreover, the pEC50 was 6.06 at hTLR7 (setting [3]), 6.06 at hTLR7 (setting [4]), 6.54 at hTLR7 (setting [5]) and 6.49 on hTLR7 (setting [6]).
In the case of `CCCCOc1nc(N)c2[nH]c(=O)n(Cc3ccc(CN4CCC(CCNC(=O)CON)CC4)cc3)c2n1` [AXC-879, N-(2-(1-(4-((6-amino-2-butoxy-8-oxo-7H-purin-9(8H)-yl)methyl)benzyl)piperidin-4-yl)ethyl)-2-(aminooxy)acetamide], the “TLR7 activity (comparison in words)” value at hTLR7 is recorded as “highest potency among different TLR-agonist (payload) linkers”. In addition, the pEC50 is 6.82 on hTLR7 (setting [3]), 6.82 at hTLR7 (setting [4]) and 7.05 on hTLR7 (setting [5]). The “tumor dependent ISAC activity” value in assay [2] was “highest HER2 dependent TLR7 activities”.
Take `CCCCOc1nc(N)c2[nH]c(=O)n(Cc3ccc(CN4CCC(CCNC(=O)c5cc(F)c(N)c(F)c5)CC4)cc3)c2n1` [AXC-887, 4-amino-N-(2-(1-(4-((6-amino-2-butoxy-8-oxo-7H-purin-9(8H)-yl)methyl)benzyl)piperidin-4-yl)ethyl)-3,5-difluorobenzamide]: the pEC50 is 5.43 at TLR8; 8.34 at hTLR7 (setting [7]); above 8.00 on hTLR7 (text to Table 11, TLR7, read-out: EC50).
On to `CCCCOc1nc(N)c2[nH]c(=O)n(Cc3ccc(CN4CCC(C5CCN(C(=O)CON)CC5)CC4)cc3)c2n1` [AXC-901, 6-amino-9-(4-((1′-(2-(aminooxy)acetyl)-4,4′-bipiperidin-1-yl)methyl)benzyl)-2-butoxy-7H-purin-8(9H)-one], for which the “TLR7 activity (comparison in words)” value on hTLR7 is reported as “highest potency among different payload linkers”. Also, the pEC50 on hTLR7 (Table 13, TLR7, read-out: EC50) was 7.32. Further, the “tumor dependent ISAC activity” value in assay [2] is given as “highest HER2 dependent TLR7 activities”.
Turning to `CCCCOc1nc(NC(C)=O)c2[nH]c(=O)n(Cc3ccc(CN4CCC(CCNC(=O)CON)CC4)cc3)c2n1` [AXC-966, N-(2-(1-(4-((6-acetamido-2-butoxy-8-oxo-7,8-dihydro-9H-purin-9-yl)methyl)benzyl)piperidin-4-yl)ethyl)-2-(aminooxy)acetamide], at hTLR7 (setting [6]), the pEC50 was 7.18.
For `CC(C)(C)OC(=O)NCCC1CCN(Cc2ccc(Cn3ccc4c5nc(N)ncc5ccc43)cc2)CC1` [AXC-968, tert-butyl (2-(1-(4-((2-amino-7H-pyrrolo[2,3-h]quinazolin-7-yl)methyl)benzyl)piperidin-4-yl)ethyl)carbamate], the pEC50 on hTLR7 (setting [8]) was below 5.00.
Still for that read-out and setting: for `NCCC1CCN(Cc2ccc(Cn3ccc4c5nc(N)ncc5ccc43)cc2)CC1` [AXC-969, 7-(4-((4-(2-aminoethyl)piperidin-1-yl)methyl)benzyl)-7H-pyrrolo[2,3-h]quinazolin-2-amine] the value was below 5.00; for `NOCC(=O)NCCC1CCN(Cc2ccc(Cn3ccc4c5nc(N)ncc5ccc43)cc2)CC1` [AXC-970, N-(2-(1-(4-((2-amino-7H-pyrrolo[2,3-h]quinazolin-7-yl)methyl)benzyl)piperidin-4-yl)ethyl)-2-(aminooxy)acetamide], below 5.00.
As to `CCCCOc1nc(NC(C)=O)c2[nH]c(=O)n(Cc3ccc(CN4CCC(CCON)CC4)cc3)c2n1` [AXC-978, N-(9-(4-((4-(2-(aminooxy)ethyl)piperidin-1-yl)methyl)benzyl)-2-butoxy-8-oxo-8,9-dihydro-7H-purin-6-yl)acetamide], the pEC50 at hTLR7 (setting [6]) is 7.54.
Regarding `CCCCOc1nc(N)c2[nH]c(=O)n(Cc3ccc(CN4CCC(CCON)CC4)cc3)c2n1` [AXC-979, 6-amino-9-(4-((4-(2-(aminooxy)ethyl)piperidin-1-yl)methyl)benzyl)-2-butoxy-7H-purin-8(9H)-one], the pEC50 at hTLR7 (setting [6]) was 7.66.
The same measure, in the same setting: for `CCCCOc1nc(NC(C)=O)c2[nH]c(=O)n(Cc3ccc(CN4CCC(C5CCNCC5)CC4)cc3)c2n1` [AXC-980, N-(9-(4-(4,4′-bipiperidin-1-ylmethyl)benzyl)-2-butoxy-8-oxo-8,9-dihydro-7H-purin-6-yl)acetamide] the value was 7.53; for `CCCCOc1nc(NC(C)=O)c2[nH]c(=O)n(Cc3ccc(CN4CCC(C5CCN(C(=O)CON)CC5)CC4)cc3)c2n1` [AXC-981, N-(9-(4-((1′-(2-(aminooxy)acetyl)-4,4′-bipiperidin-1-yl)methyl)benzyl)-2-butoxy-8-oxo-8,9-dihydro-7H-purin-6-yl)acetamide], 8.00.
With `CCCCOc1nc(NC(=O)CCOCCOCCOC)c2[nH]c(=O)n(Cc3ccc(CN4CCC(CCN)CC4)cc3)c2n1` [AXC-982, N-(9-(4-((4-(2-aminoethyl)piperidin-1-yl)methyl)benzyl)-2-butoxy-8-oxo-8,9-dihydro-7H-purin-6-yl)-3-(2-(2-methoxyethoxy)ethoxy)propanamide], the pEC50 at hTLR7 (setting [6]) is 7.72.
Still for that read-out and setting: the result for `CCCCOc1nc(NC(=O)CCOCCOCCOC)c2[nH]c(=O)n(Cc3ccc(CN4CCC(CCNC(=O)CON)CC4)cc3)c2n1` [AXC-983, N-(9-(4-((4-(2-(2-(aminooxy)acetamido)ethyl)piperidin-1-yl)methyl)benzyl)-2-butoxy-8-oxo-8,9-dihydro-7H-purin-6-yl)-3-(2-(2-methoxyethoxy)ethoxy)propanamide] reads 7.27.
As to `CCCCNc1nc(N)c2[nH]c(=O)n(Cc3ccc(OCCN(C)C)nc3)c2n1` [DSR-6434, reference compound], the pEC50 was 8.04 at hTLR7 (Table 10, read-out: TLR7 EC50); 7.80 at hTLR7 (setting [7]); 7.83 on hTLR7 (setting [3]); 8.05 at hTLR7 (Table 13, TLR7, read-out: EC50); 7.98 at hTLR7 (Table 14, read-out: TLR7 EC50); 7.82 at hTLR7 (setting [4]). Further, the pEC50 on hTLR7 (setting [5]) is 7.96; on hTLR7 (setting [6]) it was 7.85.
`CCCN(CCC)C(=O)C1=Cc2ccc(-c3ccc(C(=O)N4CCCC4)cc3)cc2N=C(N)C1` [Motolimod, reference compound]: on TLR8, the pEC50 was 5.85.
